Experimental findings from patent publication US20080039515A1, “Arylpyrazoles And Methods Of Using Same For Control Of Insect Pests That Bore Into Trees” (The Texas A&M University System, priority 2004, published 2008) are described below.

Where two headings read alike, the source gives them in different places.

One data set relates to Cerambycid. The data set is classed as in vivo, cerambycids. To be noted: for Number of Attacks/0.3 m bole section at 3 m after 24 days: Cerambycid: 576 h. The protocol: After 5 weeks post-injection (May 28), frills were cut with a hatchet into the sapwood between the injection points near the base of the tree. A cellulose. sponge was inserted into each cut and loaded with I0 ml of a 4:1 mix of sodium N-methyldithiocarbamate (MS) (Woodfume®; Osmose, Inc., Buffalo, N.Y.) plus dimethyl sulfoxide (DMSO) (Aldrich Chemical) (Roton 1987, Strom et al. 2004). This method reduces resin to near zero in 1-2 weeks. The intent was to stress the tree and make it susceptible to attack by bark beetles without killing it. Pheromone packets containing racemic ipsdienol+lanerione, ipsenol or cis-verbenol were attached (June 7) atop 3 m stakes evenly spaced in between and around the study trees to encourage attack by the three Ips engraver species. […] Thus, ipsdienol and cis-verbenol pheromone baits were deployed on all stakes on June 17th. The baits were changed every 4 weeks.
Trial 2. Three weeks after pheromone deployment (June 28), each tree was evaluated by marking a 30 cm (1 ft) section of bole at a height of 3 m (10 ft). All visible Ips attacks and cerambycid egg niches were counted within the marked area. The number of trees with fading crowns also was recorded. Thereafter, the trees were evaluated weekly for crown fading. When mortality did occur, the trees were felled and two bolts taken and evaluated for attack success and gallery length as described in Trial 1. All remaining trees were felled 66 days (Aug. 9) after initial pheromone deployment when no additional trees had died for 2 weeks. Treatment efficacy was determined by comparing tree survival, beetle attacks and egg gallery length on treated and untreated bolts. As before, data were transformed and analyzed by GLM and the Fisher's Protected LSD test using the Statview statistical program.

The subject of another data set is cerambycid larvae. The data set is classed as in vivo, cerambycids. The note with it: for reduction of cerambycid larval feeding damage: May. On the procedure: Study Sites: Two 20-year-old, recently thinned loblolly pine plantations were selected in Texas. Trees in one plantation were injected for use in a bolt study (Trial 1). Trees in ½ acre section of the second plantation were injected as part of a single-tree protection study (Trial 2). A staging area also was set up in the second plantation where bolts from the first plantation were exposed to bark beetles and wood borers.
After 1 (May 24), 3 (July 19) and 5 (September) months post-injection, 5 trees of each treatment were felled and two 1.5 m long bolts were removed from the 3 m and 8 m heights of the bole. Because southern pine beetle (SPB) populations were extremely low in east Texas during the study year, Ips engravers were used as alternative bark beetles for this study. The bolts were transported to a 20-year-old loblolly plantation that was recently thinned and contained fresh slash material. Each bolt was placed about 1 m apart on discarded, dry pine bolts to maximize surface area available for colonization as well as to discourage predation by ground and litter-inhabiting organisms. To facilitate timely bark beetle colonization, packets of bark beetle pheromones (racemic ipsdienol +lanerione combination, ipsenol or cis-verbenol; Phero Tech, Inc., Delta, BC, Canada) were attached separately to three 1 m stakes evenly spaced in the study area. Racemic ipsdienol and cis-verbenol were used with the second series of bolts deployed in July. The packets were removed after 2 weeks when signs of attacks (boring dust) were observed on most test bolts, signaling that naturally-produced pheromones were present.
Treatment Evaluation: Trial 1. The first and second series of bolts were retrieved 2.5 and 3 weeks, respectively, after deployment, after observing many cerambycid attacks on most of the bolts. In the laboratory, two 10×50 cm strips (total=1000 cm^2) of bark were removed from each bolt. Several measurements were made relating to construction of nuptial chambers and egg galleries and development of brood: • 1. Number of unsuccessful attacks—penetration to phloem, but no egg galleries. • 2. Number of successful attacks—construction of nuptial chamber and at least one egg gallery extending from it. • 3. Number and lengths of egg galleries with brood galleries radiating from them. • 4. Number and lengths of egg galleries without brood galleries. • 5. Cerambycid activity, estimated by overlaying a 100 cm^2 grid over a portion of each bark strip and counting the number of squares overlapping area where cerambycids had fed.
Treatment efficacy was determined by comparing Ips beetle attacks and egg gallery length and cerambycid feeding on treated and untreated bolts. The data were transformed by log10(x+1) to satisfy criteria for normality and homoscedasticity (Zar 1984) and analyzed by GLM and the Fishers Protected LSD test using the Statview statistical program.

Data set [1] concerns loblolly pine trees, Pinus taeda L. To be noted: in vivo. The protocol: Treatment Methods: Trial 1: Loblolly pine trees, Pinus taeda L., 15-20 cm (=6-9 inch) diameter at breast height (DBH), were selected in March of the study year in a 20-year-old pine stand in east Texas (Angelina County). Each treatment was injected into four cardinal points about 0.3 m above the ground on each of 15 trees in April (16th-23rd) using the Arborjet Tree IV™ microinfusion system (Arborjet, Inc. Woburn, Mass.).
At the time of tree felling, a section of lower bole (˜60-80 cm) containing the injection points was taken from each injected tree. The bark was later removed around the injection points to determine if any damage had resulted from the installation of plugs and/or injection of chemicals. If damage was found, the length and width of any ‘lesions’ (discolored areas on the surface of the xylem) were measured.

With `N#Cc1nn(-c2c(Cl)cc(C(F)(F)F)cc2Cl)c(N)c1[S+]([O-])C(F)(F)F` (stereo not shown) [Fip, 5-amino-3-cyano-1-(2,6-dichloro-4-trifluoromethylphenyl)-4-trifluoromethylsulfinylpyrazole], in the data set with Cerambycid, the “Borer Feeding Area (% of Total Area)” value is given as 0.0 % of Total Area and the “Number of Attacks/0.3 m bole section at 3 m after 24 days: Cerambycid” value stood at 1.3 a. The “phloem area fed upon by cerambycid larvae” value in the data set with cerambycid larvae (July, bolts from 3 m) came to 2%. Also, in the data set on cerambycid larvae (bolts from 3 m), the “reduction of cerambycid larval feeding damage” value (from here on “reduction”) stood at 82%. Also, in the data set with cerambycid larvae (bolts from 8 m), the “reduction” value is reported as 55%. Further, in data set [1] (1 month), the “Lesion Length” value came out at 4.1 a cm and the “Lesion Width” value worked out at 1.5 a cm. Besides, in data set [1] (3 months), the “Lesion Length” value came to 4.1 a cm and the “Lesion Width” value is reported as 1.4 cm.
For `O=[N+]([O-])NC1=NCCN1Cc1ccc(Cl)nc1` [Imid], the “Number of Attacks/0.3 m bole section at 3 m after 24 days: Cerambycid” value in the data set with Cerambycid is given as 4.7 a. In addition, the “reduction” value was determined as 61% with cerambycid larvae (bolts from 3 m) and 98% with cerambycid larvae (bolts from 8 m). The “Lesion Length” value in data set [1] (1 month) is reported as 7.3 b cm; in data set [1] (3 months) it was 6.1 a cm. For the same compound, the “Lesion Width” value is 1.7 a cm in data set [1] (1 month) and 1.3 cm in data set [1] (3 months).
